Experimental data from US4940790A, “5-(3-alkyl-5-tert.butyl-4-hydroxyphenyl)-2-amino-6H-1,3,4-thiadiazines” (Hoechst Aktiengesellschaft, priority 1987, dated 1990).
Where a name gives a salt, the structure may show the parent alone. Read-outs that look alike come from different tables or passages of the source.

Key:
acetic acid stretching = test: Analgesic action: acetic acid stretching test; assay type: in vivo, female mice of a NMRI strain; details: Mus musculus, 0.25 h; oral dose of 158 mg/kg, mice; read-out: Animals relieved of pain in %
Method: The analgesic action of the compounds of the formula I according to the invention was tested by means of the acetic acid stretching test on mice by the method of R. Koster et al., Fed. Prod. 18 (1959), p. 412.
The experimental animals used were female mice of a NMRI strain having a body weight (BW) between 21 and 28 g. Groups of 12 animals each received 0.1 ml/10 g of BW of a 0.6% strength acetic acid solution injected intraperitoneally. The test substances were administered 30 minutes beforehand. Immediately after the injection of acetic acid, the animals were placed alone and the number of typical stretching movements occurring within 15 minutes were counted, which comprise a brief tensing of the stomach muscles including the flank parts and subsequent stretching of the rear body and at least one read extremity.
The test substances were administered orally in a volume of 10 ml/kg of BW in a 1% strength aqueous carboxymethylcellulose (CMC) suspension.

adjuvant arthritis = test: Adjuvant arthritis (method of Pearson), reduction in the increase in paw volume; assay type: in vivo, male rats of a Wistar-Lewis strain; details: Rattus norvegicus, po; for inhibition in vivo at 12.5 mg/kg: * 12.5 mg/kg p.o.; for ED50: read-out: ED50 in adjuvant arthritis; for inhibition in vivo at 50 mg/kg: 50 mg/kg p.o., once daily day 1 to day 5, rats
Text: 1. […] The experimental animals used were male rats of a Wistar-Lewis strain having a body weight between 130 and 200 g. […] The animals in a control group received only the vehicle. Each preparation and control group comprised 8 animals. The criterion for action was the percentage reduction in the increase in paw volume compared to that of the untreated control group.

in vivo = details: mouse, ip; for LD50 at 168 h: read-out: Acute toxicity LD50
Method: The LD50 values were determined by a standard method from the mortality occurring within 7 days in NMRI (Naval Medical Research Institute) mice (6 animals per dose) after a single intraperitoneal (i.p.) administration.

[1] = Acute gastral ulcerogenity; design: species or system male Sprague-Dawley rats; details: rat, in vivo, po
Method: 2. Acute gastral ulcerogenity
The investigation took place on 10 male Sprague-Dawley rats whose gastric mucous membrane had been sensitized by hunger stress. The body weight of the animals was between 200 and 300 g. While allowing free access to the drinking water, the feed was withdrawn from the animals 48 hours before administration of the test preparations until sacrifice of the animals. The rats were sacrificed 24 hours after oral substance administration, and the stomachs were removed, cleaned under running water and inspected for mucous membrane lesions. All macroscopically visible lesions were regarded as ulcers. The number of animals having ulcers was determined for each dose, and the UD50 values, i.e. the doses at which lesions were caused in 50% of the animals, were calculated from these figures by the method of Litchfield and Wilcoxon (J. Pharmacol. Exp. Ther. 96 (1949), p. 99).

5-lipoxygenase = target: T1, 5-lipoxygenase (Homo sapiens, UniProt P09917); test: Inhibition of 5-lipoxygenase: LTB4 formation in isolated polymorphonuclear human granulocytes; assay type: cell-based; details: ionophor A 23 187, LTB4 by HPLC, 37° C.
T1 construct: in-vitro experiments on isolated polymorphonuclear human granulocytes; endogenous in cells; host or cells: isolated human polymorphonuclear granulocytes
T1 sequence (P09917 1-674): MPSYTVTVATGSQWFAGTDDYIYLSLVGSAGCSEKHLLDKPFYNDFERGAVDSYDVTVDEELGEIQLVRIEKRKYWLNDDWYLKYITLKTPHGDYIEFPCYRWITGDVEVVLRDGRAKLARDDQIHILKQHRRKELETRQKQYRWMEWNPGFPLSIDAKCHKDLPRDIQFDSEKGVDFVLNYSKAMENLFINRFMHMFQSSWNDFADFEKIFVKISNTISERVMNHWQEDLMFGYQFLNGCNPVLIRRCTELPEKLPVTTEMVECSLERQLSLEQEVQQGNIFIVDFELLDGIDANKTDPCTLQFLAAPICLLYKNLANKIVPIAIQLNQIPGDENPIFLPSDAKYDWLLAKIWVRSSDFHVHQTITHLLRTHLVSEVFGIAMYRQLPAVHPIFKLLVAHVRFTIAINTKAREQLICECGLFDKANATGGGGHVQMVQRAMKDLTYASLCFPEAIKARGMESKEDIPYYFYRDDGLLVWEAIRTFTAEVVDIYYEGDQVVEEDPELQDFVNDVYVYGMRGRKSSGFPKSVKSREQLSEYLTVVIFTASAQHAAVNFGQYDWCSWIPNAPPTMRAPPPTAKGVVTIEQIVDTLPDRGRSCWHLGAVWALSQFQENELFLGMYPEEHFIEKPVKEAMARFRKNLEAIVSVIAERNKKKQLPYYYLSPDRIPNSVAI
Method: 5. Inhibition of 5-lipoxygenase
The inhibitory action of the compounds according to the invention of 5-lipoxygenase-catalysed degradation of arachidonic acid was determined, as usual, in in-vitro experiments on isolated polymorphonuclear human granulocytes. To this purpose, the cells were incubated at 37° C. with the particular test preparation and the formation of pro-inflammatoryleukotriene B4 (LTB4) was induced after 5 minutes using the calcium ionophor A 23 187 (Calbiochem GmbH, Frankfurt/Main, FRG, Biochemical and Immunochemical Catalog 1985, p. 284). The amount of LTB4 liberated over a period of 10 minutes was determined quantitatively with the aid of a UV detector after separation by means of high-pressure liquid chromatography (HPLC).

[2] = system: Adriamycin-induced inflammation; test: Antioxidative action: inhibition of Adriamycin (doxorubicin) induced inflammation; assay type: in vivo, male Sprague-Dawley rats; details: for Increase in paw volume: after 72 hours, control 390; for Protective effect against Adriamycin-induced tissue destruction (in words): rats, oral
Text: 4. Antioxidative action According to current opinion, aggressive oxygen radicals, which are formed to excess during the chronic inflammation process and, as highly toxic inflammation mediators themselves, perpetually maintain the connective tissue destruction proceeding via irreversible lipid peroxidation of the cell membranes, participate prominently in the progressive course, caused by a number of factors, of rheumatoid arthritis and other inflammatory disorders. As a result, antioxidatively active pharmaceuticals which are capable of deactivating these extremely cytotoxic oxygen radicals should allow specific intervention in the chronic course of the inflammation. A suitable animal model for this type of tissue destruction caused by oxygen radicals is Adriamycin (doxorubicin) induced inflammation in rats. The investigations were carried out by the method of D. M. Siegel et al. (Inflammation 4 (1980), p. 233) on male Sprague-Dawley rats having a body weight of between 200 and 230 g in groups each with 7 animals, which received 0.1 mg of Adriamycin, dissolved in 0.1 ml of 0.9% strength sodium chloride solution, by subcutaneous injection into the left rear paw. The increase in paw volume after 72 hours was determined by plethysmography measurement as a measure of the degree of inflammation. The test preparations were administered orally once daily on the 4 successive days, starting with the day of Adriamycin injection, in a 1% strength aqueous carboxymethylcellulose suspension.

[3] = 50 mg/kg p.o., *Significance p <0.05
[4] = single i.p., NMRI mice, mortality within 7 days

Work on `CN(C)C1=NN=C(c2cc(C(C)(C)C)c(O)c(C(C)(C)C)c2)CS1` [Example 1, 5-(3,5-di-tert.butyl-4-hydroxyphenyl)-2-dimethylamino-6H-1,3,4-thiadiazinehydrobromide] yielded a responders at 158 mg/kg (acetic acid stretching) of 83%, an inhibition in vivo at 12.5 mg/kg (adjuvant arthritis; rats) of 69% and an ED50 (adjuvant arthritis; from the dose/action curve, p.o., rats) of 6 mg/kg. It also gave a selectivity ratio (in vivo; LD50 (i.p. mice) divided by ED50 (adjuvant arthritis, rats), read-out: LD50/ED50 quotient) of about 150, an LD50 at 168 h (in vivo) of 600 to 1200 mg/kg and a TD50 at 24 h [1] of 200 mg/kg. It also gave a selectivity ratio [1] of about 33, an IC50 (5-lipoxygenase) of 9 µM and a Protective action ([2]; 25 mg/kg p.o.) of 10%. For the same molecule, the “Increase in paw volume” value ([2]; 25 mg/kg p.o.) was 350 µL, the Protective action [2, 3] was 69% and the “Increase in paw volume” value ([2]; 50 mg/kg p.o.) was 120 µL. The “Protective effect against Adriamycin-induced tissue destruction (in words)” value (“Protective effect” for short) [2] was “strong, dose-dependent protective effect”.

For `CC1CCN(C2=NN=C(c3cc(C(C)(C)C)c(O)c(C(C)(C)C)c3)CS2)CC1` [Example 2, 5-(3,5-di-tert.butyl-4-hydroxyphenyl)-2-(4-methylpiperidino)-6H-1,3,4-thiadiazine hydrobromide], the responders at 158 mg/kg (acetic acid stretching) was 75%, the inhibition in vivo at 50 mg/kg (adjuvant arthritis) was 62% and the LD50 at 168 h (in vivo; [4]) was 600 to 1200 mg/kg. It also gave a TD50 at 24 h [1] of 100 mg/kg.

With `Cc1cc(C2=NN=C(N(C)C)SC2)cc(C(C)(C)C)c1O` [Example 3, 5-(5-tert.butyl-3-methyl-4-hydroxyphenyl)-2-dimethylamino-6H-1,3,4-thiadiazine hydrobromide] the responders at 158 mg/kg (acetic acid stretching) was 42%, the inhibition in vivo at 50 mg/kg (adjuvant arthritis) was 58% and the LD50 at 168 h (in vivo; [4]) was 600 to 1200 mg/kg. It also gave a TD50 at 24 h [1] of over 200 mg/kg and an IC50 (5-lipoxygenase) of 4 µM.

`CNC1=NN=C(c2cc(C(C)(C)C)c(O)c(C(C)(C)C)c2)CS1` [Example 4, 5-(3,5-di-tert.butyl-4-hydroxyphenyl)-2-methylamino-6H-1,3,4-thiadiazine-hydrochloride] gave a responders at 158 mg/kg (acetic acid stretching) of 83%, an inhibition in vivo at 50 mg/kg (adjuvant arthritis) of 81% and an LD50 at 168 h (in vivo; [4]) of 300 to 600 mg/kg. It also gave a TD50 at 24 h [1] of 100 to 200 mg/kg.

Work on `CCN(C)C1=NN=C(c2cc(C(C)(C)C)c(O)c(C(C)(C)C)c2)CS1` [Example 8] yielded a responders at 158 mg/kg (acetic acid stretching) of 92%, an inhibition in vivo at 12.5 mg/kg (adjuvant arthritis; rats) of 61% and an LD50 at 168 h (in vivo) of 300 to 600 mg/kg. The TD50 at 24 h [1] was over 200 mg/kg and the IC50 (5-lipoxygenase) was 13 µM.

With `CCN(CC)C1=NN=C(c2cc(C(C)(C)C)c(O)c(C(C)(C)C)c2)CS1` [Example 9] the inhibition in vivo at 12.5 mg/kg (adjuvant arthritis; rats) was 55%, the LD50 at 168 h (in vivo) was 600 to 1200 mg/kg and the TD50 at 24 h [1] was over 200 mg/kg.

In the case of `CCN(C1=NN=C(c2cc(C(C)(C)C)c(O)c(C(C)(C)C)c2)CS1)C(C)C` [Example 10], the inhibition in vivo at 50 mg/kg (adjuvant arthritis) is reported as 82%, the LD50 at 168 h (in vivo) is reported as over 1200 mg/kg and the TD50 at 24 h [1] is reported as 200 mg/kg.

Work on `CCCN(CCC)C1=NN=C(c2cc(C(C)(C)C)c(O)c(C(C)(C)C)c2)CS1` [Example 11] yielded an inhibition in vivo at 50 mg/kg (adjuvant arthritis) of 54%, an LD50 at 168 h (in vivo) of over 1200 mg/kg and a TD50 at 24 h [1] of 100 to 200 mg/kg.

In the case of `CC(C)(C)c1cc(C2=NN=C(NCc3ccccc3)SC2)cc(C(C)(C)C)c1O` [Example 12], the inhibition in vivo at 50 mg/kg (adjuvant arthritis) is reported as 65%, the LD50 at 168 h (in vivo) is reported as 600 to 1200 mg/kg and the TD50 at 24 h [1] is reported as over 200 mg/kg.

`CN(Cc1ccccc1)C1=NN=C(c2cc(C(C)(C)C)c(O)c(C(C)(C)C)c2)CS1` [Example 13] gave a responders at 158 mg/kg (acetic acid stretching) of 42%, an inhibition in vivo at 50 mg/kg (adjuvant arthritis) of 71% and an LD50 at 168 h (in vivo) of 600 to 1200 mg/kg. The TD50 at 24 h [1] was over 200 mg/kg.

Molecule `C=CCNC1=NN=C(c2cc(C(C)(C)C)c(O)c(C(C)(C)C)c2)CS1` [Example 14] has a responders at 158 mg/kg (acetic acid stretching) of 67%, an inhibition in vivo at 50 mg/kg (adjuvant arthritis) of 75% and an LD50 at 168 h (in vivo) of 600 to 1200 mg/kg. For the same molecule, the TD50 at 24 h [1] was over 200 mg/kg, the Protective action ([2]; 25 mg/kg p.o.) was 36% and the “Increase in paw volume” value ([2]; 25 mg/kg p.o.) was 250 µL. For the same molecule, the Protective action [2, 3] was 59%, the “Increase in paw volume” value ([2]; 50 mg/kg p.o.) was 160 µL and the “Protective effect” value [2] was “strong, dose-dependent protective effect”.

Work on `CC(C)(C)c1cc(C2=NN=C(N3CCCC3)SC2)cc(C(C)(C)C)c1O` [Example 17] yielded an IC50 (5-lipoxygenase) of 10 µM.

In the case of `CC(C)(C)c1cc(C2=NN=C(N3CCCCC3)SC2)cc(C(C)(C)C)c1O` [Example 18], the inhibition in vivo at 50 mg/kg (adjuvant arthritis) is reported as 74%, the LD50 at 168 h (in vivo) is reported as over 1200 mg/kg and the TD50 at 24 h [1] is reported as 100 mg/kg.

`CN1CCN(C2=NN=C(c3cc(C(C)(C)C)c(O)c(C(C)(C)C)c3)CS2)CC1` [Example 20] showed an inhibition in vivo at 50 mg/kg (adjuvant arthritis) of 72%, an LD50 at 168 h (in vivo) of 150 to 300 mg/kg and a TD50 at 24 h [1] of 200 mg/kg.

`CC1SC(N(C)C)=NN=C1c1cc(C(C)(C)C)c(O)c(C(C)(C)C)c1` (stereo not shown) [Example 22] showed a responders at 158 mg/kg (acetic acid stretching) of 92%, an inhibition in vivo at 12.5 mg/kg (adjuvant arthritis; rats) of 84% and an LD50 at 168 h (in vivo) of 600 to 1200 mg/kg. The TD50 at 24 h [1] was over 200 mg/kg.

With `COc1ccc2cc(C(C)C(=O)O)ccc2c1` (stereo not shown) [naproxen, 2-(6-methoxy-2-naphthyl)-propionic acid, reference compound] the ED50 (adjuvant arthritis) was 17.5 mg/kg, the inhibition in vivo at 50 mg/kg (adjuvant arthritis) was 55% and the “Protective effect” value [2] was “ineffective”.
